Active and inactive are the calls of the source. The rule behind the calls is not given here.
Assays:
Rattus norvegicus [1] = experiment: Antiinflammatory activity against po dosed carrageenan-induced rat foot paw edema model; type: functional
Rattus norvegicus [2] = experiment: Antiinflammatory activity against carrageenan-induced rat foot paw edema model at 100 mg/kg, po; type: functional

In the case of CS(=O)(=O)c1ccc(-n2nc(C(F)(F)F)cc2C2=CCNCC2)cc1, the ED50 (Rattus norvegicus [1]) is reported as 129 mg/kg.
With CCOC(=O)N1CC=C(c2cc(C(F)(F)F)nn2-c2ccc(S(C)(=O)=O)cc2)CC1 the inhibition in vivo at 100 mg/kg (Rattus norvegicus [2]) was 24.1%.
CS(=O)(=O)c1ccc(-n2nc(C(F)(F)F)cc2C2=CCN(N=O)CC2)cc1 was tested, and the ED50 (Rattus norvegicus [1]) was 115 mg/kg.
CN1CC=C(c2cc(C(F)(F)F)nn2-c2ccc(S(C)(=O)=O)cc2)CC1 was tested, and the ED50 (Rattus norvegicus [1]) was 95.3 mg/kg.
CN1CC=C(c2cc(C(F)(F)F)nn2-c2ccc(S(N)(=O)=O)cc2)CC1 was tested, and the ED50 (Rattus norvegicus [1]) was 61.2 mg/kg.
NS(=O)(=O)c1ccc(-n2nc(C(F)(F)F)cc2C2=CCNCC2)cc1 showed an inhibition in vivo at 100 mg/kg (Rattus norvegicus [2]) of 7.1%.
CC(=O)Oc1ccccc1C(=O)O [ASPIRIN] was tested, and the ED50 (Rattus norvegicus [1]) was 129 mg/kg.
With CCOC(=O)N1CC=C(c2cc(C(F)(F)F)nn2-c2ccc(S(N)(=O)=O)cc2)CC1 the Activity (Rattus norvegicus [2]) was “inactive”.

From ChEMBL document CHEMBL1144219, “Synthesis of new 4-[2-(4-methyl(amino)sulfonylphenyl)-5-trifluoromethyl-2H-pyrazol-3-yl]-1,2,3,6-tetrahydropyridines: a search for novel nitric oxide donor anti-inflammatory agents” (2008)
